Data from PubChem BioAssay (NCI).
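Interpolation was linear, between the two tested concentrations surrounding the appropriate level; five concentrations were tested over 48 hours in 96-well plates. The concentration for 50% growth inhibition is given as GI50. TGI: total growth inhibition.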

Legend:
Test in all cases: NCI anticancer screen, dose series, 48 h
U251 CNS = tested on: U251 CNS
HOP-62 NSCLC = tested on: HOP-62 NSCLC
HT29 colon = tested on: HT29 colon
LXFL 529 NSCLC = tested on: LXFL 529 NSCLC
M14 melanoma = tested on: M14 melanoma
DMS 273 small cell lung = tested on: DMS 273 small cell lung
SF-295 CNS = tested on: SF-295 CNS
LOX IMVI melanoma = tested on: LOX IMVI melanoma
OVCAR-3 ovarian = tested on: OVCAR-3 ovarian
MDA-MB-435 = tested on: MDA-MB-435

| SMILES | TGI (U251 CNS) [µM] | TGI (HOP-62 NSCLC) [µM] | TGI (HT29 colon) [µM] | TGI (LXFL 529 NSCLC) [µM] | TGI (M14 melanoma) [µM] | TGI (DMS 273 small cell lung) [µM] | TGI (SF-295 CNS) [µM] | TGI (LOX IMVI melanoma) [µM] | GI50 (U251 CNS) [µM] | GI50 (OVCAR-3 ovarian) [µM] | TGI (OVCAR-3 ovarian) [µM] | GI50 (HOP-62 NSCLC) [µM] | GI50 (HT29 colon) [µM] | GI50 (LXFL 529 NSCLC) [µM] | GI50 (M14 melanoma) [µM] | GI50 (DMS 273 small cell lung) [µM] | GI50 (SF-295 CNS) [µM] | GI50 (LOX IMVI melanoma) [µM] | TGI (MDA-MB-435) [µM] |
| --- | --- | --- | --- | --- | --- | --- | --- | --- | --- | --- | --- | --- | --- | --- | --- | --- | --- | --- | --- |
| O=C1/C(=N\O)c2ccccc2S1(=O)=O | > 100 | > 100 | > 100 | > 100 | > 100 | > 100 | > 100 | > 100 |  |  |  |  |  |  |  |  |  |  |  |
| c1ccc([CH2][Sn]([CH2]c2ccccc2)([O]c2cccc3cccnc23)[O]c2cccc3cccnc23)cc1 | 0.463 | 0.515 | 0.361 | 1.2 | 1.75 | 0.502 | 1.92 | 1.65 | 0.218 | 0.3 | 0.949 | 0.207 | 0.139 | 0.32 | 0.46 | 0.233 | 0.579 | 0.53 |  |
| O=S(=O)([O-])c1ccc(N=Cc2ccccc2[O-])cc1.O=S(=O)([O-])c1ccc(N=Cc2ccccc2[O-])cc1.[O]=[U+2]=[O] | > 100 | > 100 | > 100 | > 100 | > 100 | > 100 | > 100 | > 100 | 94.7 | > 100 | > 100 | 81.7 | > 100 | > 100 | > 100 | > 100 | > 100 | > 100 |  |
| Cc1ccc(S(=O)(=O)c2ccc(NC(=O)SCCC(=O)O)cc2)cc1 | > 100 | > 100 | > 100 | > 100 | > 100 | > 100 | > 100 | > 100 |  |  | > 100 |  |  |  |  |  |  |  |  |
| COc1ccc2c(c1)[n+]([O-])c(-c1ccc([N+](=O)[O-])cc1)c(N)[n+]2[O-] | > 100 | > 100 | > 100 | > 100 | > 100 | > 100 | > 100 |  |  |  | > 100 |  |  |  |  |  |  |  |  |
| CC12OOC(c3ccccc31)c1c2ccc2ccccc12 (centres undefined) | 28.1 | 30.2 | 6.02 | 4.81 | 22.6 | 21 | 14.3 | 6.41 |  |  | 5.81 |  |  |  |  |  |  |  | 18.2 |
| CN(C)c1ccc(/C=C/C(=O)[O-])cc1.CN(C)c1ccc(/C=C/C(=O)[O-])cc1.[Cu+2] | > 100 | > 100 | > 100 | > 100 | > 100 | > 100 | > 100 | > 70.8 | 37.2 |  | > 100 |  |  |  |  | 54 |  |  |  |
| COc1c(C)cc(O)cc1C=O | > 100 | > 100 | > 100 | > 100 | > 100 | > 100 | > 100 | > 100 |  |  | > 100 |  |  |  |  |  |  |  |  |
| O=[N+]([O-])c1ccc(C2CC(c3ccccc3Cl)=Nc3ccccc3S2)cc1 (centres undefined) | 12.2 | 68.2 | 45.9 | 11.8 | 29.4 | 33.8 | 38.5 | 11.8 |  |  | 34.2 |  |  |  |  |  |  |  |  |
| COC(=O)C1=Cc2cc(OC)c(OC)c(OC)c2[C@H](c2cc(OC)c(OC)c(OC)c2)C1C(=O)OC (some centres undefined) | > 100 | > 100 | > 100 | > 100 | > 100 | > 100 | > 100 | > 100 |  |  | > 100 |  |  |  |  |  |  |  |  |
